Data on 14 molecules can be found in patent US20090023630A1, “Methods and Means for Use in Diagnostics and Treatment of Diabetes” (priority 2005, published 2009).

In the assay the target is HLA-A*0201 (Homo sapiens, UniProt P04439, D140Y/D185E/D98H/E176V/E277Q/G131W/G231S/I119V/I121R/I166T/I218V/L300P/L318F/N151K/N90K/P208A/P217A/Q86G/Q94H/R138H/R169H/T345S). The experiment in a line: Peptide-HLA binding (competition with Fl-labeled HLA-A*0201 binding peptide). Here is the method: Peptide binding was assessed as described (21). […] HLA-bound and non-bound Fl-labeled peptides were separated by HPLC gel permeation chromatography with fluorescence detection. The concentration at which the test peptide reduced the amount of HLA-bound Fl-labeled peptide by 50% (IC50) was calculated using non-linear regression analysis. To select candidate HLA-A*0201 binding peptides from the insulin B chain, the molecule was screened for HLA-A*0201 binding motif containing peptides with a combination of two known binding prediction algorithms (18).

Setting [1] is: peptide concentration needed to inhibit binding of FL-labeled reference peptide for 50%, read-out: IC50 (binding affinity for HLA-A*0201).

Where two headings read alike, the source gives them in different places. Ends that are not written are not given here.

With `CC(C)C[C@H](NC(=O)[C@H](C)N)C(=O)N[C@@H](Cc1ccc(O)cc1)C(=O)N[C@@H](CC(C)C)C(=O)N[C@H](C(=O)N[C@@H](CS)C(=O)NCC(=O)N[C@@H](CCC(=O)O)C(=O)N[C@@H](CCCNC(=N)N)C(=O)NCC(=O)O)C(C)C` [Peptide 14-23], the IC50 under setting [1] was more than 100 µM. For ALYLVCGER [Peptide 14-22], the IC50 was found to be 90.2 µM. Take ALYLVCGERGF [Peptide 14-24]: the concentration for half-maximal inhibition (IC50) under setting [1] is 2.26 µM.

Turning to GSHLVEALYLV [Peptide 8-18], the IC50 under setting [1] is 3.73 µM. Take HLCGSGLVEAL [Peptide 5-15, HLCGSGLVEAL]: under setting [1], the IC50 is 0.44 µM. With HLCGSHLVEA [Peptide 5-14], the IC50 came to 0.06 µM.

Regarding HLVEALYLVC [Peptide 10-19], the IC50 under setting [1] was 1.75 µM.

On to HLVEALYLVCG [Peptide 10-20], for which the IC50 was 0.19 µM. The same measure, in the same setting: as for LVEALYLVC [Peptide 11-19], the figure is 3.6 µM. In the case of QHLCGSHLV [Peptide 4-12], under setting [1], the half-maximal inhibitory concentration (IC50) is 9.12 µM.

SHLVEALYL [Peptide 9-17]: the IC50 under setting [1] was 59.5 µM. As for SHLVEALYLV [Peptide 9-18], the IC50 stood at 1.37 µM.

For the molecule YLVCGERGFF [Peptide 16-25], the IC50 under setting [1] was 2.3 µM.

Take YLVCGERGFFY [Peptide 16-26]: the IC50 under setting [1] stood at 8.59 µM.

One may read the IC50 as the concentration needed to halve the response being measured.
